PubChem BioAssay (NCI)
Values joined by “and” are separate entries in the source; they are usually repeats but may differ in a detail not shown here. Equal entries are not always repeated.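 Test compounds were applied to cells in 96-well plates for 48 hours at 5 doses. GI50: concentration for 50% inhibition of growth. TGI: concentration producing complete growth inhibition.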

Experiments:
Experiment in all cases: NCI tumour cell line growth inhibition, 48 h
EKVX NSCLC = tested on: EKVX NSCLC
SF-539 CNS = tested on: SF-539 CNS
SF-295 CNS = tested on: SF-295 CNS
BT-549 breast = tested on: BT-549 breast
MCF7 breast = tested on: MCF7 breast
HCC-2998 colon = tested on: HCC-2998 colon
CCRF-CEM leukemia = tested on: CCRF-CEM leukemia
NCI/ADR-RES ovarian = tested on: NCI/ADR-RES ovarian
LOX IMVI melanoma = tested on: LOX IMVI melanoma
NCI-H23 lung = tested on: NCI-H23 lung

SMILES	GI50 (EKVX NSCLC)	TGI (EKVX NSCLC)	GI50 (SF-539 CNS)	TGI (SF-539 CNS)	GI50 (SF-295 CNS)	TGI (SF-295 CNS)	GI50 (BT-549 breast)	TGI (BT-549 breast)	GI50 (MCF7 breast)	TGI (MCF7 breast)	GI50 (HCC-2998 colon)	TGI (HCC-2998 colon)	GI50 (CCRF-CEM leukemia)	GI50 (NCI/ADR-RES ovarian) [µM]	TGI (NCI/ADR-RES ovarian) [µM]	GI50 (LOX IMVI melanoma)	TGI (LOX IMVI melanoma)	GI50 (NCI-H23 lung)	TGI (NCI-H23 lung)	TGI (CCRF-CEM leukemia)
O=C(CCN1CCCC1)Nc1ccc2c(NCc3ccccc3)c3ccccc3nc2c1	0.448 µM	2.34 µM	0.422 µM	1.58 µM	0.494 µM	1.91 µM	1.4 µM	3.04 µM	0.286 µM	1.18 µM	0.466 µM	2.02 µM	0.493 µM	11.9	55	0.328 µM	1.31 µM	0.392 µM	1.57 µM	–
CC1=CC2C(C(O)CC3(C)C2CC(C)C32OCOC23COCO3)C2(C)C/C(=C/O)C(=O)C=C12 (stereo not drawn)	2.31 µM	7.48 µM	1.93 µM	3.64 µM	2.22 µM	5.34 µM	1.62 µM	3.17 µM	2.69 µM	10.1 µM	1.91 µM	3.38 µM	1.05 µM	2.28	4.8	1.75 µM	3.31 µM	2 µM	3.83 µM	3.61 µM
C#C[C@]1(O)CC[C@H]2[C@@H]3CC=C4c5sc(Nc6cc(F)ccc6F)nc5CC[C@]4(C)[C@H]3CC[C@@]21C	1.53 µM	3.06 µM	0.389 µM	1.74 µM	0.224 µM	0.592 µM	0.661 µM	2.43 µM	1.5 µM	3.26 µM	1.65 µM	3.19 µM	0.669 µM	2.79	13.8	1.49 µM	2.87 µM	1.78 µM	4.38 µM	4.81 µM
OC1(c2ccccc2)C2CC=CC2C1(c1ccccc1)c1ccccc1 (stereo not drawn)	–	76.4 µM	–	> 100 µM	–	> 100 µM	–	> 100 µM	–	79.4 µM	–	48.3 µM	–	–	> 100	–	37.9 µM	–	> 100 µM	> 100 µM
COC(=O)c1cc(-c2ccccc2)[nH]c1N/N=C/c1c(Cl)cccc1Cl	0.454 µM	> 37.3 µM	0.218 µM	0.605 µM	0.195 µM	0.92 µM	0.466 µM	6.69 µM	0.266 µM	4.85 µM	0.363 µM	23.4 µM	0.348 µM	0.22	0.77	0.602 µM	17.7 µM	0.438 µM	15.4 µM	93 µM
NC(=N\N=C/c1ccc(O)cc1)/C(N)=N\N=C/c1ccc(O)cc1	> 87.9 µM	> 100 µM	3.99 µM	> 100 µM	3.3 µM	> 100 µM	77.5 µM	> 100 µM	> 100 µM	> 100 µM	8.56 µM	> 100 µM	0.324 µM	> 100	> 100	0.435 µM	> 100 µM	> 100 µM	> 100 µM	> 100 µM
O=C1NC(N/N=C\C(O)C(O)C(O)C(O)CO)=N/C1=C/c1ccccc1 (stereo not drawn)	> 100 µM and 19.9 µM	> 100 µM and 51 µM	> 100 µM and 17.4 µM	> 100 µM and 35.3 µM	84.1 µM and 16.2 µM and > 100 µM	> 100 µM and 38.2 µM	80.6 µM and 16.3 µM and > 100 µM	> 100 µM and 38.7 µM	40.3 µM and 13.5 µM and > 61.4 µM	> 100 µM and 30.7 µM	> 100 µM and 13.5 µM	> 100 µM and 41.7 µM	37.1 µM and 10.2 µM and 37.7 µM	–	> 100	> 100 µM and 17.7 µM	> 100 µM and 36.4 µM	> 100 µM and 19.3 µM	> 100 µM and 36.5 µM	> 100 µM and 97.7 µM and > 57.7 µM
COc1cc2c3c(n(CCCN)c(=O)c2cc1OC)-c1ccc([N+](=O)[O-])cc1C3=O	20 µM	40.7 µM	3.76 µM	14.9 µM	0.912 µM	17.9 µM	13.4 µM	28 µM	0.317 µM	1.96 µM	2.29 µM	13.6 µM	0.15 µM	14	> 100	2.28 µM	16.6 µM	5.13 µM	25.1 µM	2.73 µM
Nc1ccn(C2CC(F)C(CO)O2)c(=O)n1 (stereo not drawn)	> 100 µM	> 100 µM	> 100 µM	> 100 µM	> 100 µM	> 100 µM	> 100 µM	> 100 µM	> 100 µM	> 100 µM	> 100 µM	> 100 µM	> 100 µM	> 100	> 100	> 100 µM	> 100 µM	> 100 µM	> 100 µM	> 100 µM
